Results from US8399522B2, “3.2.1-bicyclo-octane compounds” (International Flavors & Fragrances Inc, priority 2010, dated 2013).

Assays:
[1] = Mold/mildew malodor coverage, jar test ranked by sensory panel; parameters: species or system human; details: compound 10% in solvent; for Mold/Mildew Malodor, mean rank of malodor coverage: 8 oz jar, 1 hour equilibration, 15-18 panelists, scale 1 (No Coverage), 3 (Moderate Coverage), 5 (Excellent Coverage)
Protocol: (§1) Establishment of Malodor Models: It is known that the perspirative malodors of human body, particularly sweat, are associated with the production of several unpleasant smelling organic acids, particularly isovaleric acid (“IVA”). The commercial sample of this malodorous material (commercially available at Sigma-Aldrich Inc.) was thus used as a model compound to assess the effectiveness of sweat malodor counteractants. The mold/mildew malodor model was prepared based on applicant's proprietary formulations for assessing the effectiveness of mold/mildew malodor counteractants.
(§2) Preparation of Test Samples: Two aluminum dishes were placed in an 8 oz glass jar. A malodor material was pipetted into one aluminum dish, and a compound of the present invention diluted in a solvent (10%) or a solvent alone control was pipetted into the other aluminum dish. The jar was then capped and the samples were allowed to equilibrate for one hour before the testing.
(§3) Testing Procedure: Test samples were presented in a blind and random order to 15-18 internal panelists (consisting of men/women with an age range of 25 to 55). However, different odor samples were arranged in an alternative order (for example, sweat, mold/mildew, sweat, mold/mildew, and etc.).
(§4) The panelists were instructed to take the steps of i) sniff jars containing only the malodor materials for familiarization prior to the testing; ii) uncap a jar; iii) place their noses at a distance of about 3-4 inches above the opening; iv) take short sniffs for 3 seconds; and v) provide a rank of the malodor coverage using an intensity scale of 1 to 5, where 1 represents “No Coverage”, 3 represents “Moderate Coverage”, and 5 represents “Excellent Coverage”. The means for each sample was then calculated.

[2] = Sweat malodor coverage, jar test ranked by sensory panel; parameters: species or system human; details: compound 10% in solvent; for Sweat Malodor, mean rank of malodor coverage: 8 oz jar, 1 hour equilibration, 15-18 panelists, scale 1 (No Coverage), 3 (Moderate Coverage), 5 (Excellent Coverage)
Protocol: as §1, §2, §3, §4

[3] = Vapor pressure; type: physicochemical

| SMILES | counteracting mold/mildew malodor (in words) [1] | Mold/Mildew Malodor, mean rank of malodor coverage [1] | counteracting sweat malodor (in words) [2] | Sweat Malodor, mean rank of malodor coverage [2] | Vapor Pressure [3] |
| --- | --- | --- | --- | --- | --- |
| CC1C(=O)CC2(C)CCC1C2 (centres unmarked) [Structure 2, 1,4-dimethyl-bicyclo[3.2.1]octan-3-one] | effective | 3.63 | effective | 3.57 | 4305 µg/L |
| CC1CC2(C)C3CCC(C)(C3)CC2O1 (centres unmarked) [Structure 4, 2,4,8-trimethyl-5-oxa-tricyclo [6.2.1.0*2,6*]undecane] | effective | 2.79 | effective | 3.11 | 1045 µg/L |
| CC12CCC(C1)C1(C)OC1C2 (centres unmarked) [Structure 1, 2,6-dimethyl-3-oxa-tricyclo[4.2.1.0*2,4*]nonane] | effective | 3.87 | effective | 3.59 | 2186 µg/L |
| CC1C2CCC(C)(C2)CC12OCCO2 (centres unmarked) [Structure 5, 1,4-dimethyl-bicyclo[3.2.1]octan-3-dioxolane] | effective | 2.39 | effective | 2.92 | 1281 µg/L |
